# Like-named read-outs stand apart in the source and are kept apart here.
# Assays:
# [1] = biological target: T1, mitochondrial calcium/sodium antiporter (Rattus norvegicus, UniProt Q6AXS0); assay: Inhibition of mitochondrial calcium/sodium antiporter activity in digitonin-permeabilized INS-1 cells (calcium green 5N); type: cell-based
# T1 construct: endogenous in cells; host or cells: INS-1 rat insulinoma cells, digitonin-permeabilized
# T1 sequence (Q6AXS0 27-585): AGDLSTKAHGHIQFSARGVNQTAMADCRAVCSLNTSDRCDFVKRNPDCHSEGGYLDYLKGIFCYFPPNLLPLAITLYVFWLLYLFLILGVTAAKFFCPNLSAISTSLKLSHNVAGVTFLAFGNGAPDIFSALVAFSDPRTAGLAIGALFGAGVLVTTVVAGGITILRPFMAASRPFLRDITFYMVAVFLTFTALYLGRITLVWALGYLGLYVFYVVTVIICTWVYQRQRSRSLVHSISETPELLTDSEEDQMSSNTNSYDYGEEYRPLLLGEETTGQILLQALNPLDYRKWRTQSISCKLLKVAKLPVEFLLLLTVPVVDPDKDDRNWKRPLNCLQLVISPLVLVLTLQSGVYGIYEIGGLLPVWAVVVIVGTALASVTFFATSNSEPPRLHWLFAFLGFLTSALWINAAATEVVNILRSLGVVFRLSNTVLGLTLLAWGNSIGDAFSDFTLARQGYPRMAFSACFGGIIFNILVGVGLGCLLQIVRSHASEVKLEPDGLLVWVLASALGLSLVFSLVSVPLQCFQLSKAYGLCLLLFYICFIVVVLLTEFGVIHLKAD
# Description: INS-1 rat insulinoma cells (see Example 3) were harvested by trypsinization, washed and resuspended at 10×10^6 cells/ml in assay buffer (250 mM sucrose, 10 mM HEPES, 2.5 mM K2HPO4, 5 mM succinate, pH 7.4) containing 0.007% digitonin, 60 μM CaCl2 and 0.05 μM calcium green 5N (Molecular Probes, Inc., Eugene, OR). After a five minute calcium loading incubation, ruthenium red (1 μM; Sigma, St. Louis, MO) was added to block further calcium uptake by mitochondria. Cell suspensions were dispensed into 96-well plates (100 μl per well, 1×10^6 cells per well) and candidate agents (i.e., candidate mitochondrial calcium/sodium antiporter inhibitors) were added to some sets of triplicate wells at concentrations of 1, 10 or 100 μM, while other sets of wells provided appropriate control conditions (e.g., buffer and vehicle controls). Baseline fluorescence measurements were made using a multiwell plate fluorimeter (F-MAX™, Molecular Devices Corp., Sunnyvale, Calif.; or PolarStar , BMG Labtechnologies, Inc., Durham, N.C.) according to the manufacturer's instructions. Calcium efflux from mitochondria was then induced by adding NaCl to all wells to achieve a final concentration of 20 mM, and the rate of change in fluorescence in each well was monitored was monitored for two minutes and quantified using software included with the plate reader.
# [2] = test system: pancreatic islets of Langerhans; assay: Glucose-stimulated insulin secretion (GSIS) by isolated rat islets, insulin ELISA; type: cell-based, Sprague-Dawley rats; conditions: 1 μM compound
# Description: Pancreatic islets of Langerhans were isolated from adult male Sprague-Dawley rats using a standard collagenase infusion and digestion procedure as described in Example 5. Islets were cultured at 37° C. for 1-2 days in CMRL-1066 medium supplemented with 5.5 mM glucose, 10% fetal bovine serum, 100 U/ml penicillin and 100 μg/ml streptomycin, in a humidified atmosphere containing 5% CO2. Islets were manually picked and washed in Krebs Ringer Bicarbonate buffer (KRB: 134 mM NaCl, 4.7 mM KCl, 1.2 mM KH2PO4, 1.2 mM MgSO4, 1 mM CaCl2, 10 mM NaHCO3, pH 7.4) in preparation for measurement of glucose-stimulated insulin secretion (GSIS). Aliquots of washed islets were preincubated in oxygenated KRB supplemented with 16 mM HEPES, 0.01% fetal bovine serum and 5.5 mM glucose for 60 min at 37° C. […] Cell-conditioned media samples were then collected by centrifugation and their insulin content was determined using enzyme-linked immunosorbent assay (ELISA) kits (CrystalChem or ALPCO rat insulin ELISA) according to the kit supplier's instructions. Following treatment with a preferred compound, the concentration of insulin detected in the islet-conditioned medium was at least 1.5 times the insulin concentration detected in the medium conditioned by islets that were exposed to 8 mM glucose. […]
# [3] = test system: INS-1 rat insulinoma cells; assay: Insulin secretion by INS-1 cells, basal or 8 mM glucose (radioimmunoassay); type: cell-based; conditions: 15, 30 or 60 minutes, FIG. 2
# Description: INS-1 rat insulinoma cells were provided by Prof. Claes Wollheim, , Geneva, Switzerland, and cultured at 37° C. in a humidified […] (Gibco BRL, Gaithersburg, Md.) fetal bovine serum (Irvine Scientific, Irvine, Calif.), 2 mM […], 100 U/ml streptomycin, 10 mM HEPES, 1 mM sodium pyruvate and 50 μM β-mercaptoethanol (all reagents Sigma, St. Louis, Mo., unless otherwise noted).
# INS-1 cells were seeded into 24-well plates containing RPMI media supplemented at 0.5×10^6 cells/well and cultured at 37° C., 5% CO2 for 2 days. Cells at or near confluence (0.7×10^6cells/well) were rinsed with glucose-free KRH buffer (134 mM NaCl, 4.7 mM KCl, 1.2 mM KH2PO4, 1.2 mM MgSO4, 1.0 mM CaCl2, 10 mM HEPES-ph 7.4, 25 mM NaHCO3, 0.5% BSA), then incubated in the same buffer for 1 hr at 37° C. in a humidified 5% CO2/95% air atmosphere. […] Insulin concentrations in the supernatants were measured and normalized to cell number using an insulin-specific radioimmunoassay kit (ICN Biochemicals, Irvine, Calif.) according to the manufacturer's instructions. […]
# [4] = test system: mitochondrial calcium/sodium antiporter (MCA) from beef heart mitochondria; assay: Sodium-calcium exchange in proteoliposomes reconstituted with affinity isolated MCA; type: biochemical; conditions: 100 μM calcium chloride, FIG. 8
# Description: From a separate preparation of beef heart mitochondria, affinity isolation of the MCA was performed as just described, except that 1% CHAPS was substituted for 1% Triton X-100 in the initial solubilization, and following the column wash steps, retained components (including proteins bound to the affinity matrix) were eluted with 50 mM diltiazem. The column eluate containing proteins was incorporated into proteoliposomes essentially as described by Li et al (1992 J. Biol. Chem. 267: 17983-17989), using Calcium Green SN as the internal fluorescent probe (Molecular Probes, Eugene, OR), and calcium transport activity of the MCA was measured essentially as described by Li et al. (1992). Briefly, calcium chloride (100 μM) was added to a suspension of Calcium Green 5N-loaded proteoliposomes to initiate sodium-calcium exchange, which was measured as an increase in fluorescence as the calcium entered the vesicles that contained Calcium Green 5N. […] Data points in FIG. 8 represent average values at each concentration from two independent experiments.
# [5] = test system: rat pancreatic islet cells; assay: Insulin secretion by rat pancreatic islet cells, 5 mM or 8 mM glucose (FIG. 3); type: cell-based; conditions: various concentrations
# [6] = biological target: T2, mitochondrial Na+/Ca2+ exchanger (Rattus norvegicus, UniProt Q6AXS0); assay: Na+-induced Ca2+ release from rat heart mitochondria, Ca2+-selective electrode; type: biochemical; conditions: 20 μM compound
# T2 construct: Rat heart mitochondria were isolated using a modified differential centrifugation protocol; from tissue; host or cells: rat heart mitochondria
# T2 sequence (Q6AXS0 27-585): T1 sequence (Q6AXS0 27-585)
# Description: (§1) Rat heart mitochondria were isolated using a modified differential centrifugation protocol essentially as described by Sordahl (Methods in Studying Cardiac Membranes (1984), pp 65-74). Experiments to assess effects on transmitochondrial membrane transport of calcium were carried out at 25° C. in a buffer consisting of 250 mM sucrose, 10 mM HEPES (pH 7.4), 5 mM Pi, 5 mM succinate, 1 μM rotenone, supplemented with 1 μM cyclosporine A to prevent interference from the Ca^2+-dependent permeability transition pore (PTP). Ca^2+ uptake and release were measured using a Ca^2+-selective electrode in a custom-constructed chamber additionally equipped for monitoring mitochondrial swelling via changes in light scattering (World Precision Instruments, Inc., Sarasota, Fla.). Alternatively, Ca^2+ fluxes were followed fluorometrically using the Calcium Green 5N™ indicator according to the supplier's recommendations (Molecular Probes, Eugene, Oreg.).
# (§2) Mitochondria (0.5 mg/ml) that were energized by the presence of succinate accumulated endogenous Ca^2+ from the medium (trace calcium from water source). Additional Ca^2+ (20 μM ) was added to the reaction buffer 2-3 minutes following commencement of measurements with the calcium electrode. […] No PTP activation (swelling) was detected under experimental conditions used.
# [7] = biological target: T2, mitochondrial Na+/Ca2+ exchanger; assay: Na+-induced Ca2+ release from mitochondria, Calcium Green 5N fluorescence; type: biochemical
# Description: as §1, §2
structure (smiles),measurement,setting,value
Cc1ccc(C2SCC(=O)Nc3ccc(Cl)cc32)c(C)c1 (stereo not drawn) [compound 21],IC50,[1],< 100 µM
Cc1ccccc1C1OCC(=O)Nc2ccc(Cl)cc21 (stereo not drawn) [compound 10],IC50,[1],< 100 µM
O=C1CSC(c2ccccc2Cl)c2ccccc2N1 (stereo not drawn) [compound 23],IC50,[1],< 100 µM
O=C1C[S+]([O-])C(c2ccccc2Cl)c2cc(Cl)ccc2N1 (stereo not drawn) [Compound No. 24],IC50,"[1]; permeabilized INS-1 cells, 20 mM NaCl-induced calcium efflux, read-out: IC50, MCA inhibition",< 100 µM
same,stimulation of GSIS relative to GSIS detected with 8 mM glucose,[2],178%
"O=C1CSC(c2ccccc2Cl)c2cc(Cl)ccc2N1 (stereo not drawn) [Compound No. 1, 7-chloro-5-(2-chlorophenyl)-1,5-dihydro-4,1-benzothiazepin-2-one]",glucose stimulated insulin secretion by INS-1 cells,[3],enhanced
same,inhibition of sodium-calcium exchange activity,[4],inhibited in a dose-dependent fashion
same,stimulation of GSIS relative to GSIS detected with 8 mM glucose,[2],222 (±48) %
same,glucose stimulated insulin secretion by rat islets,[5],enhancement
same,inhibition at 20 µM,[6],~50%
same,inhibition of Na+-induced rapid Ca2+ release,[6]; FIG. 4,inhibited completely
O=C(O)CN1C(=O)CSC(c2ccccc2Cl)c2cc(Cl)ccc21 (stereo not drawn) [Compound No. 2],concentrations at which inhibition was observed,[7],≥ 100 µM
